Assay results as given in patent publication US4742049A, “Semisynthetic erythromycin antibiotics” (Abbott Laboratories, priority 1986, dated 1988).
≈ marks a conversion by molar mass, not a printed value. Where two headings read alike, the source gives them in different places.

Columns and labels:
[1] = system: Providencia stuartii; experiment: antimicrobial spectrum, agar dilution MIC; assay type: cell-based; conditions: strain CMX 640, BHI agar, 20-24 hours
Summary of the method: (§1)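 BHI agar dilution series, 12 plates; Steers replicator inoculum 1:100, 1:10 for slow growers (Streptococcus); 35°-37° C., 20-24 h. MIC = lowest conc. with no growth/slight haze/isolated colonies vs drug-free control.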

[2] = system: Pseudomonas aeruginosa; experiment: antimicrobial spectrum, agar dilution MIC; assay type: cell-based; conditions: Pseudomonas aeruginosa, BHI agar, 20-24 hours
Summary of the method: as §1

[3] = system: Staph. aureus; experiment: antimicrobial spectrum, agar dilution MIC; assay type: cell-based; conditions: Staphylococcus aureus, BHI agar, 20-24 hours
Summary of the method: as §1

[4] = system: Staph. epidermidis; experiment: antimicrobial spectrum, agar dilution MIC; assay type: cell-based; conditions: Staphylococcus epidermidis, BHI agar, 20-24 hours
Summary of the method: as §1

[5] = system: Strep. agalactiae; experiment: antimicrobial spectrum, agar dilution MIC; assay type: cell-based; conditions: Streptococcus agalactiae, BHI agar, 20-24 hours
Summary of the method: as §1

[6] = system: Strep. bovis; experiment: antimicrobial spectrum, agar dilution MIC; assay type: cell-based; conditions: Streptococcus equinus, strain A5169; BHI agar, 20-24 hours
Summary of the method: as §1

[7] = system: Strep. faecalis; experiment: antimicrobial spectrum, agar dilution MIC; assay type: cell-based; conditions: Enterococcus faecalis, BHI agar, 20-24 hours
Summary of the method: as §1

[8] = system: Strep. faecium; experiment: antimicrobial spectrum, agar dilution MIC; assay type: cell-based; conditions: Enterococcus faecium, ATCC8043, strain ATCC 8043; BHI agar, 20-24 hours
Summary of the method: as §1

[9] = system: Strep. pneumoniae; experiment: antimicrobial spectrum, agar dilution MIC; assay type: cell-based; conditions: Streptococcus pneumoniae
Summary of the method: as §1

[10] = system: Strep. pyogenes; experiment: antimicrobial spectrum, agar dilution MIC; assay type: cell-based; conditions: Streptococcus pyogenes, BHI agar, 20-24 hours
Summary of the method: as §1

[11] = system: E. coli; experiment: antimicrobial spectrum, agar dilution MIC; assay type: cell-based; conditions: Escherichia coli, BHI agar, 20-24 hours
[12] = system: Micrococcus luteus; experiment: antimicrobial spectrum, agar dilution MIC; assay type: cell-based; conditions: 20-24 hours
[13] = system: Lactobacillus Casei; experiment: antimicrobial spectrum, agar dilution MIC; assay type: cell-based; conditions: Lacticaseibacillus casei, ATCC7469, strain ATCC 7469; BHI agar, 20-24 hours
[14] = system: Ent. aerogenes; experiment: antimicrobial spectrum, agar dilution MIC; assay type: cell-based; conditions: Klebsiella aerogenes, ATCC10348, strain ATCC 10348; BHI agar, 20-24 hours
[15] = system: Klebsiella pneumoniae; experiment: antimicrobial spectrum, agar dilution MIC; assay type: cell-based; conditions: strain 8045, BHI agar, 20-24 hours
[16] = system: Pseudomonas cepacia; experiment: antimicrobial spectrum, agar dilution MIC; assay type: cell-based; conditions: Burkholderia cepacia, strain 2961; BHI agar, 20-24 hours; read-out: MIC
Procedure: Erythromycin A was used for this purpose.
After incubation, each disk is read.

[17] = system: Acinetobacter SP; experiment: antimicrobial spectrum, agar dilution MIC; assay type: cell-based; conditions: strain CMX 669, BHI agar, 20-24 hours
[18] = system: Staph. saprophyticus; experiment: microbe, parasite or virus in culture; conditions: Staphylococcus saprophyticus, ATCC15305
Procedure: Twelve petri dishes containing successive aqueous dilutions of the test compound mixed with 10 ml of sterilized Brain Heart Infusion agar (Difco 0418-01-5) are prepared. Each plate is inoculated with 1:100 (or 1:10 for slow-growing strains, primarily Micrococcus and Streptococcus) dilutions of up to 32 different microorganisms, using a Steers replicator block. The inoculated plates are incubated at 35°-37° C. for 20-24 hours. In addition, a control plate, using BHI agar containing no test compound, is prepared and incubated at the beginning and end of each test.
An additional plate containing a compound having known susceptibility patterns for the organisms being tested and belonging to the same antibiotic class as the test compound is also prepared and incubated as a further control, as well as to provide test-to-test comparability.
After incubation, each disk is read. The MIC is defined as the lowest concentration of drug yielding no growth, a slight haze, or sparsely isolated colonies on the inoculum spot as compared to the growth control.

[19] = system: gut contractions (stomach, duodenum, jejunum); conditions: dog, in vivo, iv, 4 mg/kg
Procedure: Compounds of this invention have been tested for gastrointestinal stimulating activity in a dog model at 4 mg/kg intravenously. Contractions in the gut were recorded with surgically implanted strain gauges. […] Ratios were calculated for the stomach, duodenum and jejunum, and a final arithmetic mean index was calculated and reported in Table 1.

[20] = system: Staph. aureus NCTC 10649; experiment: acute mouse protection test; conditions: for ED50: Staphylococcus aureus, NCTC10649, in Mus musculus, 168 h, dosed 1 and 5 hours post-infection, observed 7 days; for # Died: ten mice
Procedure: The acute mouse protection test is conducted on ten mice with each of three levels of drug.
The acute mouse protection test is conducted on female, Swiss albino mice, 18-20 grams in weight. The mice are injected intraperitoneally with an 18-hour culture of the indicated test organism diluted sufficiently to provide the desired LD50 value. To check the potency of the inoculum, a titration of the indicated test organism is carried out in control animals. […] The ED50 values are calculated using the mortality data collected.

Structure (SMILES): CC[C@H]1OC(=O)[C@H](C)[C@@H](O[C@H]2C[C@@](C)(OC)[C@@H](O)[C@H](C)O2)[C@H](C)[C@@H](O[C@@H]2O[C@H](C)C[C@H](N(C)C)[C@H]2O)[C@](C)(OC)C[C@@H](C)C(=O)[C@H](C)[C@H]2NC(=O)O[C@@]21C [Example 2, 11-deoxy-6-O-methyl erythromycin A 11,12 cyclic carbamate]
- MIC [1]: > 100 µg/mL
- MIC ([2]; strain 5007): 100 µg/mL (≈ 129 µM)
- MIC ([2]; strain BMH10): 50 µg/mL (≈ 64.7 µM)
- MIC ([2]; strain K799/61): 1.56 µg/mL (≈ 2.02 µM)
- MIC ([2]; strain K799/WT): 50 µg/mL (≈ 64.7 µM)
- MIC ([3]; ATCC6538P, strain ATCC 6538P): 0.1 µg/mL (≈ 0.129 µM)
- MIC ([3]; ATCC25923, strain ATCC 25923): 0.015 µg/mL (≈ 0.0194 µM)
- MIC ([3]; NCTC10649, strain NCTC 10649, read-out: MIC): 0.06 µg/mL (≈ 0.0776 µM)
- MIC ([3]; strain 45): 0.1 µg/mL (≈ 0.129 µM)
- MIC ([3]; strain 45 RAR 2): 0.2 µg/mL (≈ 0.259 µM)
- MIC ([3]; strain 642A): 0.03 µg/mL (≈ 0.0388 µM)
- MIC ([3]; strain A5177): 0.39 µg/mL (≈ 0.505 µM)
- MIC ([3]; strain A-5278): > 128 µg/mL
- MIC ([3]; strain CMX 686B): 0.1 µg/mL (≈ 0.129 µM)
- MIC ([3]; strain CMX 705): 0.015 µg/mL (≈ 0.0194 µM)
- MIC ([3]; strain CMX 730A): 0.015 µg/mL (≈ 0.0194 µM)
- MIC ([3]; strain CMX 739A): 0.015 µg/mL (≈ 0.0194 µM)
- MIC ([3]; strain GYR 1150): 0.03 µg/mL (≈ 0.0388 µM)
- MIC ([3]; strain GYR 1162): 0.03 µg/mL (≈ 0.0388 µM)
- MIC ([4]; strain 3519): 0.05 µg/mL (≈ 0.0647 µM)
- MIC ([4]; strain 3519 RARI): 0.05 µg/mL (≈ 0.0647 µM)
- MIC ([4]; strain CMX 724G): > 128 µg/mL
- MIC ([4]; strain CMX 728): 0.03 µg/mL (≈ 0.0388 µM)
- MIC ([4]; strain CMX 729h): > 128 µg/mL
- MIC ([4]; strain GYR 1151): 0.03 µg/mL (≈ 0.0388 µM)
- MIC ([5]; strain CMX 508): 0.01 µg/mL (≈ 0.0129 µM)
- MIC ([5]; strain CMX 633): 0.015 µg/mL (≈ 0.0194 µM)
- MIC [6]: 0.02 µg/mL (≈ 0.0259 µM)
- MIC ([7]; strain A-5168): > 128 µg/mL
- MIC ([7]; strain CMX 663F): 0.5 µg/mL (≈ 0.647 µM)
- MIC ([7]; strain CMX 729G, read-out: MIC): 0.12 µg/mL (≈ 0.155 µM)
- MIC ([7]; strain CMX 736F, read-out: MIC): 0.06 µg/mL (≈ 0.0776 µM)
- MIC ([7]; strain GYR 1164, read-out: MIC): 0.12 µg/mL (≈ 0.155 µM)
- MIC ([7]; strain GYR 1166, read-out: MIC): 0.06 µg/mL (≈ 0.0776 µM)
- MIC ([7]; strain GYR 1167, read-out: MIC): 0.12 µg/mL (≈ 0.155 µM)
- MIC [8]: 0.05 µg/mL (≈ 0.0647 µM)
- MIC [9]: 16000 ng/mL (≈ 20.7 µM)
- MIC ([9]; strain CMX 635, BHI agar, 20-24 hours): 4 ng/mL (≈ 0.00517 µM)
- MIC ([9]; strain CMX 698, BHI agar, 20-24 hours): 4 ng/mL (≈ 0.00517 µM)
- MIC ([10]; strain 930): > 100000 ng/mL
- MIC ([10]; strain C203): 4 ng/mL (≈ 0.00517 µM)
- MIC ([10]; strain EES61): 50 ng/mL (≈ 0.0647 µM)
- MIC ([10]; strain M79061-98, read-out: MIC): 250 ng/mL (≈ 0.323 µM)
- MIC ([10]; strain M79061-139): 4 ng/mL (≈ 0.00517 µM)
- MIC ([10]; strain M79061-140): 4 ng/mL (≈ 0.00517 µM)
- MIC ([11]; strain DC-2): 50 µg/mL (≈ 64.7 µM)
- MIC ([11]; strain H560): 3.1 µg/mL (≈ 4.01 µM)
- MIC ([11]; strain JUHL): 50 µg/mL (≈ 64.7 µM)
- MIC ([11]; strain KNK 437): 25 µg/mL (≈ 32.3 µM)
- MIC ([11]; strain SS): 0.39 µg/mL (≈ 0.505 µM)
- MIC ([12]; strain 4698, BHI agar): 0.39 µg/mL (≈ 0.505 µM)
- MIC ([12]; strain 9341, BHI agar): 0.05 µg/mL (≈ 0.0647 µM)
- MIC [13]: 0.05 µg/mL (≈ 0.0647 µM)
- MIC [14]: 100 µg/mL (≈ 129 µM)
- MIC [15]: 50 µg/mL (≈ 64.7 µM)
- MIC [16]: 25 µg/mL (≈ 32.3 µM)
- MIC [17]: 6.2 µg/mL (≈ 8.02 µM)
- MIC [18]: 0.03 µg/mL (≈ 0.0388 µM)
- Gastrointestinal Motility Index [19]: 1.18
- ED50 ([20]; po, dosage medium Carboxymethylcellulose): 45.2 mg/kg
- ED50 ([20]; po, dosage medium PBS): 34.4 mg/kg
- ED50 ([20]; sc, subcutaneous, dosage medium Injectable solution): 5 mg/kg
- # Died ([20]; oral, Carboxymethylcellulose, 9.4 mg/kg): 10
- # Died ([20]; oral, Carboxymethylcellulose, 62.5 mg/kg): 7
- # Died ([20]; oral, Carboxymethylcellulose, 150.0 mg/kg): 0
- # Died ([20]; oral, PBS, 9.4 mg/kg): 10
- # Died ([20]; oral, PBS, 62.5 mg/kg): 7
- # Died ([20]; oral, PBS, 150.0 mg/kg): 0
- # Died ([20]; subcutaneous, Injectable solution, 2.5 mg/kg): 9
- # Died ([20]; subcutaneous, Injectable solution, 10.0 mg/kg): 1
- # Died ([20]; subcutaneous, Injectable solution, 40.0 mg/kg): 0
